# Source: patent US20250002507A1, “7,8-DIHYDRO-5H-1,6-NAPHTHYRIDINE DERIVATIVES AS POSITIVE ALLOSTERIC MODULATORS OF THE MUSCARINIC ACETYLCHOLINE RECEPTOR M4 FOR TREATING NEUROLOGICAL AND PSYCHIATRIC DISORDERS” (Vanderbilt University, priority 2021, published 2025)
# Target: T1, Human M4 (Homo sapiens, UniProt P08173)
# T1 construct: expressed in transfected cells
# T1 sequence (P08173 1-479): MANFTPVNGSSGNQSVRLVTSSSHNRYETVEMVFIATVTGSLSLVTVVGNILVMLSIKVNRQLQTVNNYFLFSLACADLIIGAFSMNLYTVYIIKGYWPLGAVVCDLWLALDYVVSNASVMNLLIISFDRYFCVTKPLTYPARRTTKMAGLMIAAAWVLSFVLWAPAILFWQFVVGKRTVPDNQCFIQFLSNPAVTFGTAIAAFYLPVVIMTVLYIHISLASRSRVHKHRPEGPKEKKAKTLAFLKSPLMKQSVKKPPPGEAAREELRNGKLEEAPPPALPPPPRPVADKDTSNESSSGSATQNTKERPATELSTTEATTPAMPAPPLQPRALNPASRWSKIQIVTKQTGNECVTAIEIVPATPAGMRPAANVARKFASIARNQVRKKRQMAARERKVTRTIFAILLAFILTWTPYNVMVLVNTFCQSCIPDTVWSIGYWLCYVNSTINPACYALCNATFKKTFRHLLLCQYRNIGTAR
# Assay: mAChR M4 cell-based functional assay (calcium flux, potentiation of EC20 acetylcholine response), hM4-Gqi5 CHO-K1 cells
# Conditions: Table 3; for Emax at 30 µM: CHO-K1, Human M4, % ACh maximum at 30 μM, read-out: Emax (% ACh maximum at 30 μM); for EC50: potentiation of EC20 acetylcholine response, calcium flux, CHO-K1 cells, read-out: Human M4 EC50
# Method in brief: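 Positive allosteric modulation was scored as a concentration-dependent rise in the response to an EC20 dose of acetylcholine, added 144 s after the compound. Human M4-Gqi5 CHO-K1 cells carried Fluo-4 dye, and compounds ran as 11-point, 3-fold dilution series. EC50 and Emax came from four-parameter logistic fits of the FDSS fluorescence-ratio traces.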
Compound,Emax at 30 µM,EC50
"Cc1c(N2CCc3ncc(-c4ccc(N5CC[C@@H](F)C5)nc4)cc3C2)nn2c(C(F)(F)F)nnc2c1C [Compound 249, (R)-6-(7,8-dimethyl-3-(trifluoromethyl)-[1,2,4]triazolo[4,3-b]pyridazin-6-yl)-3-(6-(3-fluoropyrrolidin-1-yl)pyridin-3-yl)-5,6,7,8-tetrahydro-1,6-naphthyridine]",65%,1210 nM
"Cc1c(N2CCc3ncc(-c4ccc(N5CC[C@H](F)C5)nc4)cc3C2)nn2c(C(F)(F)F)nnc2c1C [Compound 250, (S)-6-(7,8-dimethyl-3-(trifluoromethyl)-[1,2,4]triazolo[4,3-b]pyridazin-6-yl)-3-(6-(3-fluoropyrrolidin-1-yl)pyridin-3-yl)-5,6,7,8-tetrahydro-1,6-naphthyridine]",60%,1250 nM
"Cc1c(N2CCc3ncc(-c4ccnn4C)cc3C2)nn2c(C(F)(F)F)nnc2c1C [Compound 251, 6-(7,8-dimethyl-3-(trifluoromethyl)-[1,2,4]triazolo[4,3-b]pyridazin-6-yl)-3-(1-methyl-1H-pyrazol-5-yl)-5,6,7,8-tetrahydro-1,6-naphthyridine]",83%,169 nM
"Cc1c(N2CCc3ncc(-c4ccns4)cc3C2)nn2c(C(F)(F)F)nnc2c1C [Compound 252, 5-(6-(7,8-dimethyl-3-(trifluoromethyl)-[1,2,4]triazolo[4,3-b]pyridazin-6-yl)-5,6,7,8-tetrahydro-1,6-naphthyridin-3-yl)isothiazole]",80%,140 nM
"Cc1c(N2CCc3ncc(-c4cnn(C5CCCCC5)c4)cc3C2)nn2c(C(F)(F)F)nnc2c1C [Compound 253, 3-(1-cyclohexyl-1H-pyrazol-4-yl)-6-(7,8-dimethyl-3-(trifluoromethyl)-[1,2,4]triazolo[4,3-b]pyridazin-6-yl)-5,6,7,8-tetrahydro-1,6-naphthyridine]",42%,1690 nM
"Cc1c(N2CCc3ncc(-c4ccn(C)n4)cc3C2)nn2c(C(F)(F)F)nnc2c1C [Compound 254, 6-(7,8-dimethyl-3-(trifluoromethyl)-[1,2,4]triazolo[4,3-b]pyridazin-6-yl)-3-(1-methyl-1H-pyrazol-3-yl)-5,6,7,8-tetrahydro-1,6-naphthyridine]",76%,494 nM
"Cc1ccc(-c2cnc3c(c2)CN(c2nn4c(C(F)(F)F)nnc4c(C)c2C)CC3)cn1 [Compound 256, 6-(7,8-dimethyl-3-(trifluoromethyl)-[1,2,4]triazolo[4,3-b]pyridazin-6-yl)-3-(6-methylpyridin-3-yl)-5,6,7,8-tetrahydro-1,6-naphthyridine]",78%,250 nM
"Cc1c(N2CCc3ncc(-c4cccnc4)cc3C2)nn2c(C(F)(F)F)nnc2c1C [Compound 257, 6-(7,8-dimethyl-3-(trifluoromethyl)-[1,2,4]triazolo[4,3-b]pyridazin-6-yl)-3-(pyridin-3-yl)-5,6,7,8-tetrahydro-1,6-naphthyridine]",78%,218 nM
"COc1ccc(-c2cnc3c(c2)CN(c2nn4c(C(F)(F)F)nnc4c(C)c2C)CC3)cn1 [Compound 258, 6-(7,8-dimethyl-3-(trifluoromethyl)-[1,2,4]triazolo[4,3-b]pyridazin-6-yl)-3-(6-methoxypyridin-3-yl)-5,6,7,8-tetrahydro-1,6-naphthyridine]",77%,578 nM
"Cc1c(N2CCc3ncc(-c4ccc(C(F)(F)F)nc4)cc3C2)nn2c(C(F)(F)F)nnc2c1C [Compound 259, 6-(7,8-dimethyl-3-(trifluoromethyl)-[1,2,4]triazolo[4,3-b]pyridazin-6-yl)-3-(6-(trifluoromethyl)pyridin-3-yl)-5,6,7,8-tetrahydro-1,6-naphthyridine]",55%,1450 nM
"Cc1c(N2CCc3ncc(N4CCCn5nccc54)cc3C2)nn2c(C(F)(F)F)nnc2c1C [Compound 267, 3-(6,7-dihydropyrazolo[1,5-a]pyrimidin-4(5H)-yl)-6-(7,8-dimethyl-3-(trifluoromethyl)-[1,2,4]triazolo[4,3-b]pyridazin-6-yl)-5,6,7,8-tetrahydro-1,6-naphthyridine]",100%,37 nM
"Cc1c(N2CCc3ncc(N4CCC5OCCCC5C4)cc3C2)nn2c(C(F)(F)F)nnc2c1C (centres unmarked) [Compound 273, 6-(6-(7,8-dimethyl-3-(trifluoromethyl)-[1,2,4]triazolo[4,3-b]pyridazin-6-yl)-5,6,7,8-tetrahydro-1,6-naphthyridin-3-yl)octahydro-2H-pyrano[3,2-c]pyridine]",83%,816 nM

# Continued, values first:
Emax at 30 µM,EC50,Compound
62%,602 nM,"Cc1c(N2CCc3ncc(-c4ccc(C5CC5)nc4)cc3C2)nn2c(C(F)(F)F)nnc2c1C [Compound 255, 3-(6-cyclopropylpyridin-3-yl)-6-(7,8-dimethyl-3-(trifluoromethyl)-[1,2,4]triazolo[4,3-b]pyridazin-6-yl)-5,6,7,8-tetrahydro-1,6-naphthyridine]"
84%,7670 nM,"Cc1c(N2CCc3ncc(OCC4COCCO4)cc3C2)nn2cnnc2c1C (centres unmarked) [Compound 260, 3-((1,4-dioxan-2-yl)methoxy)-6-(7,8-dimethyl-[1,2,4]triazolo[4,3-b]pyridazin-6-yl)-5,6,7,8-tetrahydro-1,6-naphthyridine]"
90%,331 nM,"Cc1c(N2CCc3ncc(OCC4CC4)cc3C2)nn2cnnc2c1C [Compound 261, 3-(cyclopropylmethoxy)-6-(7,8-dimethyl-[1,2,4]triazolo[4,3-b]pyridazin-6-yl)-5,6,7,8-tetrahydro-1,6-naphthyridine]"
82%,1580 nM,"Cc1c(N2CCc3ncc(OCC4COC4)cc3C2)nn2cnnc2c1C [Compound 262, 6-(7,8-dimethyl-[1,2,4]triazolo[4,3-b]pyridazin-6-yl)-3-(oxetan-3-ylmethoxy)-5,6,7,8-tetrahydro-1,6-naphthyridine]"
79%,502 nM,"Cc1c(N2CCc3ncc(OCC4CC(F)(F)C4)cc3C2)nn2cnnc2c1C [Compound 263, 3-((3,3-difluorocyclobutyl)methoxy)-6-(7,8-dimethyl-[1,2,4]triazolo[4,3-b]pyridazin-6-yl)-5,6,7,8-tetrahydro-1,6-naphthyridine]"
82%,1220 nM,"Cc1c(N2CCc3ncc(OCC4CCOC4)cc3C2)nn2cnnc2c1C (centres unmarked) [Compound 264, 6-(7,8-dimethyl-[1,2,4]triazolo[4,3-b]pyridazin-6-yl)-3-((tetrahydrofuran-3-yl)methoxy)-5,6,7,8-tetrahydro-1,6-naphthyridine]"
74%,724 nM,"Cc1c(N2CCc3ncc(OCc4ccccc4)cc3C2)nn2cnnc2c1C [Compound 265, 3-(benzyloxy)-6-(7,8-dimethyl-[1,2,4]triazolo[4,3-b]pyridazin-6-yl)-5,6,7,8-tetrahydro-1,6-naphthyridine]"
93%,346 nM,"Cc1c(N2CCc3ncc(OCC4CC4(F)F)cc3C2)nn2cnnc2c1C (centres unmarked) [Compound 266, 3-((2,2-difluorocyclopropyl)methoxy)-6-(7,8-dimethyl-[1,2,4]triazolo[4,3-b]pyridazin-6-yl)-5,6,7,8-tetrahydro-1,6-naphthyridine]"
95%,143 nM,"Cc1c(N2CCc3ncc(C(F)(F)F)cc3C2)nn2c(Cl)nnc2c1C [Compound 268, 6-(3-Chloro-7,8-dimethyl-[1,2,4]triazolo[4,3-b]pyridazin-6-yl)-3-(trifluoromethyl)-7,8-dihydro-5H-1,6-naphthyridine]"
42%,1670 nM,"Cc1c(N2Cc3cc(C(F)(F)F)cnc3C(C)(C)C2)nn2cnnc2c1C [Compound 269, 6-(7,8-Dimethyl-[1,2,4]triazolo[4,3-b]pyridazin-6-yl)-8,8-dimethyl-3-(trifluoromethyl)-5,6,7,8-tetrahydro-1,6-naphthyridine]"
97%,168 nM,"COc1nnc2c(C)c(C)c(N3CCc4ncc(C(F)(F)F)cc4C3)nn12 [Compound 270, 6-(3-Methoxy-7,8-dimethyl-[1,2,4]triazolo[4,3-b]pyridazin-6-yl)-3-(trifluoromethyl)-7,8-dihydro-5H-1,6-naphthyridine]"
89%,264 nM,"Cc1c(N2CCc3ncc(N4CCOCC4)cc3C2)nn2c(C(F)(F)F)nnc2c1C [Compound 271, 4-(6-(7,8-dimethyl-3-(trifluoromethyl)-[1,2,4]triazolo[4,3-b]pyridazin-6-yl)-5,6,7,8-tetrahydro-1,6-naphthyridin-3-yl)morpholine]"
87%,831 nM,"Cc1c(N2CCc3ncc(NC4CCCC4)cc3C2)nn2c(C(F)(F)F)nnc2c1C [Compound 272, N-cyclopentyl-6-(7,8-dimethyl-3-(trifluoromethyl)-[1,2,4]triazolo[4,3-b]pyridazin-6-yl)-5,6,7,8-tetrahydro-1,6-naphthyridin-3-amine]"
